Test results as given in PubChem BioAssay AID1259411 (Chemical Carcinogenesis Research Information System (CCRIS), 2018).
Calls of active or inactive are those of the source. The rule behind the calls is not given here.

System: rodent carcinogenicity bioassays, tumor incidence
Assay: CCRIS carcinogenicity studies
Conditions: Dose: 0, Dose: 0
In short: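 Archive of carcinogenicity, mutagenicity, tumor promotion and tumor inhibition results drawn from journals, NCI reports and other sources, expert-reviewed; covers 1985-2011 and is no longer updated.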

Cc1cn([C@H]2C[C@H](N=[N+]=[N-])[C@@H](CO)O2)c(=O)[nH]c1=O
carcinogen call (Species: MOUSE, Strain/Sex: B6C3F1/FEMALE, Route: GAVAGE, 30, 60, 120 MG/KG BW IN 0.5% METHYLCELLULOSE ADMINISTERED IN TWO EQUAL DOSES DAILY 5 D/WK FOR 105 WK (STUDY DURATION:, 30, 60, 120 MG/KG BW IN 0.5% METHYLCELLULOSE ADMINISTERED IN TWO EQUAL DOSES DAILY 5 D/WK FOR 105 WK (STUDY DURATION:, Tumor Site: Type of Lesion: VAGINA: SQUAMOUS CELL CARCINOMA, SQUAMOUS CELL PAPILLOMA OR CARCINOMA): active; positive
carcinogen call (Species: MOUSE, Strain/Sex: B6C3F1/MALE, Route: GAVAGE, 30, 60, 120 MG/KG BW IN 0.5% METHYLCELLULOSE ADMINISTERED IN TWO EQUAL DOSES DAILY 5 D/WK FOR 105 WK (STUDY DURATION:, 30, 60, 120 MG/KG BW IN 0.5% METHYLCELLULOSE ADMINISTERED IN TWO EQUAL DOSES DAILY 5 D/WK FOR 105 WK (STUDY DURATION:, Tumor Site: Type of Lesion: KIDNEY: RENAL TUBULE ADENOMA, RENAL TUBULE CARCINOMA, HARDERIAN GLAND: ADENOMA, ADENOMA OR CARCINOMA): equivocal
carcinogen call (Species: MOUSE, Strain/Sex: CD-1/FEMALE, Route: GAVAGE, 30, 60, 120 MG/KG/D ON DAY 91 OF STUDY DOSES LOWERED TO 20, 30, 40 MG/KG (STUDY DURATION: 22 MO), 30, 60, 120 MG/KG/D ON DAY 91 OF STUDY DOSES LOWERED TO 20, 30, 40 MG/KG (STUDY DURATION: 22 MO), Tumor Site: Type of Lesion: VAGINA: SQUAMOUS CELL CARCINOMA): active; positive
carcinogen call (Species: MOUSE, Strain/Sex: CD-1/FEMALE, Route: INTRAVAGINAL, 5, 20 MG/ML IN 0.9% SALINE ADMINISTERED AT 0.2 ML 2/D (STUDY DURATION: 24 MO), 5, 20 MG/ML IN 0.9% SALINE ADMINISTERED AT 0.2 ML 2/D (STUDY DURATION: 24 MO), Tumor Site: Type of Lesion: VAGINA: SQUAMOUS CELL CARCINOMA): active; positive
carcinogen call (Species: MOUSE, Strain/Sex: CD-1/MALE, Route: GAVAGE, 30, 60, 120 MG/KG/D ON DAY 91 OF STUDY DOSES LOWERED TO 20, 30, 40 MG/KG/D (STUDY DURATION: 19 MO), 30, 60, 120 MG/KG/D ON DAY 91 OF STUDY DOSES LOWERED TO 20, 30, 40 MG/KG/D (STUDY DURATION: 19 MO)): inactive; negative
carcinogen call (Species: Mouse, Strain/Sex: Swiss (CD-1)/Female F1 Generation, Route: In utero, 50, 100, 200, 300 mg/kg by gavage to F0 generation females 7 d/wk for 29-39 d (delivery day): females mated with unex, 50, 100, 200, 300 mg/kg by gavage to F0 generation females 7 d/wk for 29-39 d (delivery day): females mated with unex): inactive; negative; decreased litter size and fertility rates at two highest doses
carcinogen call (Species: Mouse, Strain/Sex: Swiss (CD-1)/Male F1 Generation, Route: In utero, 50, 100, 200, 300 mg/kg by gavage to F0 generation females 7 d/wk for 29-39 d (delivery day): females mated with unex, 50, 100, 200, 300 mg/kg by gavage to F0 generation females 7 d/wk for 29-39 d (delivery day): females mated with unex, Tumor Site: Type of Lesion: Lung, Alveolar/Bronchiolar Carcinoma (5/50, 11/50, 6/50, 11/37, 8/32), Alveolar/Bronchiolar adenoma or carcinoma (14/50,, Tumor Site: Type of Lesion: Lung, Alveolar/Bronchiolar Carcinoma (5/50, 11/50, 6/50, 11/37, 8/32), Alveolar/Bronchiolar adenoma or carcinoma (14/50): active; positive; decreased litter size and fertility rates at two highest doses
carcinogen call (Species: RAT, Strain/Sex: STRAIN-CD/MALE, Route: GAVAGE, 80, 220, 600 MG/KG/D, HIGH DOSE LOWERED TO 450 MG/KG THEN 300 MG/KG ON DAYS 91 AND 278, RESPECTIVELY (STUDY DURATION:, 80, 220, 600 MG/KG/D, HIGH DOSE LOWERED TO 450 MG/KG THEN 300 MG/KG ON DAYS 91 AND 278, RESPECTIVELY (STUDY DURATION:): inactive; negative

S=C([S-])NCCNC(=S)[S-].[Zn+2]
carcinogen call (Species: MOUSE, Strain/Sex: CD/FEMALE, Route: ORAL, 100, 300 PPM IN DIET FOR 89 WK (STUDY DURATION: 94 WK), 100, 300 PPM IN DIET FOR 89 WK (STUDY DURATION: 94 WK)): inactive; negative
carcinogen call (Species: MOUSE, Strain/Sex: CD/FEMALE, Route: ORAL, 1000 PPM IN DIET FOR 88 WK (STUDY DURATION: 88 WK)): inactive; negative
carcinogen call (Species: MOUSE, Strain/Sex: CD/MALE, Route: ORAL, 100, 300, 1000 PPM IN DIET FOR 95 WK (STUDY DURATION: 96 WK), 100, 300, 1000 PPM IN DIET FOR 95 WK (STUDY DURATION: 96 WK)): inactive; negative
carcinogen call (Species: RAT, Strain/Sex: CD/FEMALE, Route: ORAL, 5, 20, 80, 320 PPM IN DIET FOR 112 WK (STUDY DURATION: 112 WK), 5, 20, 80, 320 PPM IN DIET FOR 112 WK (STUDY DURATION: 112 WK)): inactive; negative
carcinogen call (Species: RAT, Strain/Sex: CD/MALE, Route: ORAL, 5, 20, 80, 320 PPM IN DIET FOR 119 WK (STUDY DURATION: 119 WK), 5, 20, 80, 320 PPM IN DIET FOR 119 WK (STUDY DURATION: 119 WK)): inactive; negative

CC(=O)CNCC(O)C(O)N=O (centres undefined)
carcinogen call (Species: RAT, Strain/Sex: F344/FEMALE, Route: ORAL, 15, 60 MG/L DRINKING WATER 5 D/WK FOR 31, 24 WK (TOTAL DOSE 47; 144 MG) (STUDY DURATION: LIFESPAN), 15, 60 MG/L DRINKING WATER 5 D/WK FOR 31, 24 WK (TOTAL DOSE 47; 144 MG) (STUDY DURATION: LIFESPAN), Tumor Site: Type of Lesion: ESOPHAGUS: CARCINOMA, PAPILLOMA, FORESTOMACH: CARCINOMA, PAPILLOMA, LUNG: TUMOR, TONGUE: CARCINOMA, PAPILLOMA, Tumor Site: Type of Lesion: ESOPHAGUS: CARCINOMA, PAPILLOMA, FORESTOMACH: CARCINOMA, PAPILLOMA, LUNG: TUMOR, TONGUE: CARCINOMA, PAPILLOMA): active; positive
